Reference: ChEMBL document CHEMBL1201862, “PubChem BioAssay data set” (2004)
Blank lines part the entries; values can stand above or below the compound they belong to. Calls of active or inactive are those of the source.

Tests used:
[1] = biological target: Glucose-6-phosphate 1-dehydrogenase (Homo sapiens, UniProt P11413); assay: human G6PD enzyme inhibitors, dose response, selectivity assay for P. falciparum G6PD inhibitor project, biochemical, fluorescence (AID 504792); type: functional
[2] = biological target: DNA dC->dU-editing enzyme APOBEC-3G (Homo sapiens, UniProt Q9HC16); assay: Dose Response confirmation of small molecule APOBEC3G DNA Deaminase Inhibitors via a fluorescence-based single-stranded DNA deaminase assay. [Related pubchem assays (depositor defined):AID493012, AID493028]; type: functional
Sequence of DNA dC->dU-editing enzyme APOBEC-3G (Q9HC16 whole entry): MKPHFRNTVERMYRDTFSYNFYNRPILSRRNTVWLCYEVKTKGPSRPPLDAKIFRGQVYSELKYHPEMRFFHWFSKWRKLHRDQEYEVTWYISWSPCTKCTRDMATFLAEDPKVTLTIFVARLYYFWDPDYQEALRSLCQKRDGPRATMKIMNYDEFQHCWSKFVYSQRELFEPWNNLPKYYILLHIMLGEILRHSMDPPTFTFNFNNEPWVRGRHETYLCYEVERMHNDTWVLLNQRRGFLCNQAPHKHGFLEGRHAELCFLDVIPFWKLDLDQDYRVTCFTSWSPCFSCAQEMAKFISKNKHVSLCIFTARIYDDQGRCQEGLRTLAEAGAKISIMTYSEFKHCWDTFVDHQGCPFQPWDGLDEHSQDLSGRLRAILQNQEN

Hexokinase-1 = biological target: T1, Hexokinase-1 (Homo sapiens, UniProt P19367); assay: hexokinase 1 activators, dose response, selectivity assay for HKDC1 activator project, biochemical (AID 504762); type: functional
T1 sequence (P19367 whole entry): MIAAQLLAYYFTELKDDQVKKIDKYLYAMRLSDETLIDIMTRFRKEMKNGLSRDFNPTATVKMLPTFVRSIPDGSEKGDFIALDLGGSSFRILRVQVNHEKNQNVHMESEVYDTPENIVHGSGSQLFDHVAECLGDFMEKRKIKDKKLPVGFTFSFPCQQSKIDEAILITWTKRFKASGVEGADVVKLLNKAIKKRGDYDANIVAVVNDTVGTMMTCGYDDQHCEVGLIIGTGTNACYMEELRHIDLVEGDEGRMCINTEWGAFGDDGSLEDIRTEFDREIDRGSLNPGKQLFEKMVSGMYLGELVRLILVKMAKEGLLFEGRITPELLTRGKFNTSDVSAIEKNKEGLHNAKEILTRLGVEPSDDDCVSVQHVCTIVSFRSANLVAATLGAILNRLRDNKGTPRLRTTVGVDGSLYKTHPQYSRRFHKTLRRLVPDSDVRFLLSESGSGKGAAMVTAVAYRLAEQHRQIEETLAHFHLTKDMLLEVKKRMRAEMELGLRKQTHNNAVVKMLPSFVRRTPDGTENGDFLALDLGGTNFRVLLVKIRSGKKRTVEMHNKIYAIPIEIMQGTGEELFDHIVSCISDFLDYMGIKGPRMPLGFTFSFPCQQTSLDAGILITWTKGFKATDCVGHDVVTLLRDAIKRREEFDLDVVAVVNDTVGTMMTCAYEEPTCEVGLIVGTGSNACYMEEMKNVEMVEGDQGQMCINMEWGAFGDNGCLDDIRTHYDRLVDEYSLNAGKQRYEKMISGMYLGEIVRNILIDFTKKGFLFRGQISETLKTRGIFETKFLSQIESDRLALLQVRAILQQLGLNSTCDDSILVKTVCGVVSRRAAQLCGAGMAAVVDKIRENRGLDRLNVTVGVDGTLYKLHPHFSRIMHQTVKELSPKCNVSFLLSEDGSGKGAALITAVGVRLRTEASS

[3] = biological target: DNA dC->dU-editing enzyme APOBEC-3A (Homo sapiens, UniProt P31941); assay: APOBEC3A DNA deaminase inhibitors, dose response, biochemical (AID 504722); type: functional
Sequence of DNA dC->dU-editing enzyme APOBEC-3A (P31941 whole entry): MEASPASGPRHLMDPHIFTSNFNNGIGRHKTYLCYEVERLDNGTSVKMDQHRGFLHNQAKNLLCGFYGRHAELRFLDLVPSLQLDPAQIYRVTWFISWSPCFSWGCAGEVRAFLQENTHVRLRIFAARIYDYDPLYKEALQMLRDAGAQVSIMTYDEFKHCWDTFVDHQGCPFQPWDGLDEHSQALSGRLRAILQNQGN

Hexokinase HKDC1 = biological target: T2, Hexokinase HKDC1 (Homo sapiens, UniProt Q2TB90); assay: HKDC1 hexokinase activators, dose response, biochemical, W721R variant (AID 504730); type: functional
T2 sequence (Q2TB90 whole entry): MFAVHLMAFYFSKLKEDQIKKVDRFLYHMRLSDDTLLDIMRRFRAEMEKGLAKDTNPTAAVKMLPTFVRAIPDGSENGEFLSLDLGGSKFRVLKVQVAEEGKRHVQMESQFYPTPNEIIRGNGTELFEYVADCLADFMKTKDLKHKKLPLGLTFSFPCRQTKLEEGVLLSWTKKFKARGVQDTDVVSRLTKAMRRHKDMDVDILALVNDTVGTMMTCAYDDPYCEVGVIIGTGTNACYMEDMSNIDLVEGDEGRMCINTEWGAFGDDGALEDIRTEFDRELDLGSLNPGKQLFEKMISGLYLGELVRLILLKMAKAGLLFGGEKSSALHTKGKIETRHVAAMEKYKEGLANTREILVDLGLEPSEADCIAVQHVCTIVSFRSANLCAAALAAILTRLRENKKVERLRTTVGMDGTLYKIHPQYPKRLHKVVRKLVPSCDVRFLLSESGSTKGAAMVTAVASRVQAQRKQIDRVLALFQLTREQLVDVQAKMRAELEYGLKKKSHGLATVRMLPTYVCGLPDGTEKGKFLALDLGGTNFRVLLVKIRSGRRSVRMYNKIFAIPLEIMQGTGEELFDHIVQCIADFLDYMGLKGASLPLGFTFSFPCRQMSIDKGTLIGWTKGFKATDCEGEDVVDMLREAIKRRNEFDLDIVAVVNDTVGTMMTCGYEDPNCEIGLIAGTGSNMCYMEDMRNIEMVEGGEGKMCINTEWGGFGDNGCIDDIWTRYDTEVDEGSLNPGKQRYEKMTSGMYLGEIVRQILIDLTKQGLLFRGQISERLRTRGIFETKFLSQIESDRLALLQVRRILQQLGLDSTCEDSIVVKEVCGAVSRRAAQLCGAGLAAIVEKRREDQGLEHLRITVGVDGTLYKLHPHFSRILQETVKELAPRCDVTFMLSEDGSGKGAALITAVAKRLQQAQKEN

[4] = Luminescence Cell-Based Dose Retest to Confirm Inhibitors of Cancer Stem Cells. [Related pubchem assays (depositor defined):AID2717, AID2721]; type: functional; conditions: Homo sapiens
[5] = insulin promoter down-regulators in MIN6 cells, imaging, high-content screening, mouse beta cells (AID 1628); type: functional
[6] = cytotoxicity in MIN6 insulinoma cells, dose response, cytotoxicity control, cell-based, mouse insulinoma (AID 2122); type: functional;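 also: confirmatory high-throughput counterscreen run to flag cytotoxic compounds; mouse MIN-6 beta cells carrying an insulin promoter eGFP reporter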
[7] = biological target: T3, E3 ubiquitin-protein ligase XIAP (Homo sapiens, UniProt P98170); assay: XIAP antagonists, biochemical, IAP family, fluorescence polarization (AID 1018); type: functional
T3 sequence (P98170 whole entry): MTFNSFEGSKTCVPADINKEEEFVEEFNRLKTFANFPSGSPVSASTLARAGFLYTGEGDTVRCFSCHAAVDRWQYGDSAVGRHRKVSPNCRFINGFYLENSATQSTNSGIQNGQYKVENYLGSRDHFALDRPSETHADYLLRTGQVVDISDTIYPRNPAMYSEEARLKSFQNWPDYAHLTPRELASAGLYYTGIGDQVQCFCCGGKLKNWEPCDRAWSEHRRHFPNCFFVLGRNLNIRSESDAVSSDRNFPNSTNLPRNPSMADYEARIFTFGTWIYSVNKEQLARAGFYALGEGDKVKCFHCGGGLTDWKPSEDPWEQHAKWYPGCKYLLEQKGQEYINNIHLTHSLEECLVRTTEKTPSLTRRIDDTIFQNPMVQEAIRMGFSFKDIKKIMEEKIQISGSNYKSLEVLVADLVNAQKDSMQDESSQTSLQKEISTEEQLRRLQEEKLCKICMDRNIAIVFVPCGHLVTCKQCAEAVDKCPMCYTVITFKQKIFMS

[8] = biological target: T3, E3 ubiquitin-protein ligase XIAP; assay: Counter Screen using XIAP-Bir3 for Chemical Antagonists of Bir1/2 domains of IAP-family anti-apoptotic proteins. [Related pubchem assays (depositor defined):AID1018, AID1449, AID1514, AID1638, AID1749, AID1750, AID488957, AID488963]
Mu-type opioid receptor = Mu-type opioid receptor (Homo sapiens, UniProt P35372); assay: (§1) Counterscreen for agonists of heterodimerization of the mu 1 (OPRM1) and delta 1 (OPRD1) opioid receptors: Luminescence-based cell-based high throughput dose response assay to identify agonists of OPRM1 homodimerization.; type: functional
Sequence of Mu-type opioid receptor (P35372 whole entry): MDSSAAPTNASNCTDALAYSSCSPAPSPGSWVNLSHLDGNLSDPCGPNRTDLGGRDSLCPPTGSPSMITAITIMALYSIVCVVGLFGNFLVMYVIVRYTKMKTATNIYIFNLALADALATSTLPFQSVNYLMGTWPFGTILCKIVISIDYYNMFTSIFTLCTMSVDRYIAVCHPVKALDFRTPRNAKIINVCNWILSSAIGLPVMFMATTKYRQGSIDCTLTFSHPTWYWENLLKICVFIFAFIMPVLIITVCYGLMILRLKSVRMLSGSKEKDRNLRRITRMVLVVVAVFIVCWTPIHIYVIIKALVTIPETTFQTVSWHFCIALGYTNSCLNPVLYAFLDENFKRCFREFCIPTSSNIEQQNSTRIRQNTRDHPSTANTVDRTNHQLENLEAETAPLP

[9] = biological target: 5-hydroxytryptamine receptor 5A (Homo sapiens, UniProt P47898); assay: Counterscreen for agonists of OPRM1-OPRD1 heterodimerization: luminescence-based cell-based high throughput dose response assay to identify agonists of 5-hydroxytryptamine (serotonin) 5A receptor (HTR5A). [Related pubchem assays (depositor defined):AID504326, AID504355, AID504692, AID504904, AID504905]; type: functional
Sequence of 5-hydroxytryptamine receptor 5A (P47898 whole entry): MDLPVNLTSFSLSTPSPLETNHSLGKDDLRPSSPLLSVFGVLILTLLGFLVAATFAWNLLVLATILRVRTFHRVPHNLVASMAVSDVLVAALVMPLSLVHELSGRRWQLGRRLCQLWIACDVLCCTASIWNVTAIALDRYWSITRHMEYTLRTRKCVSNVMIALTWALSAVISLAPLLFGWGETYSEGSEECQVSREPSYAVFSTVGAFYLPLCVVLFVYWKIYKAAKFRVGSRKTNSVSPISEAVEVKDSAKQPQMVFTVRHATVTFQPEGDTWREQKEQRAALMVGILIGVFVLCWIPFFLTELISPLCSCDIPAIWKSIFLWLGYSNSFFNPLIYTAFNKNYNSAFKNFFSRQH

[10] = biological target: Delta-type opioid receptor (Homo sapiens, UniProt P41143); assay: as §1, with “of OPRD1” for “of OPRM1”, “homodimerization. [Related pubchem assays (depositor defined):AID504326, AID504355, AID504692, AID504904, AID504905]” for “homodimerization.”; type: functional
Sequence of Delta-type opioid receptor (P41143 whole entry): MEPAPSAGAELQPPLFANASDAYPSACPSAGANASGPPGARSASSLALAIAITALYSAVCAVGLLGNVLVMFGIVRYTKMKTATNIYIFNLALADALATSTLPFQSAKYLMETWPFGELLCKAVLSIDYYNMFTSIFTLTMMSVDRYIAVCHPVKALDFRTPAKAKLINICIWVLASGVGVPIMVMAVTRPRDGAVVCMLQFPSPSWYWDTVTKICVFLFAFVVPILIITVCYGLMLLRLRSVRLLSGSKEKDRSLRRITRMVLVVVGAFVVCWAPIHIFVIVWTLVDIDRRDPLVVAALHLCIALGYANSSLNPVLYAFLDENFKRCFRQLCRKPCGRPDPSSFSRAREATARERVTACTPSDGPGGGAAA

[11] = HEp-2 cell cytotoxicity, dose response, cytotoxicity control for RSV inhibitor project, HTS (AID 2410); type: functional; conditions: human respiratory syncytial virus
CAAX prenyl protease 2 = biological target: T4, CAAX prenyl protease 2 (Saccharomyces cerevisiae S288c, UniProt Q03530); type: biochemical
T4 sequence (Q03530 whole entry): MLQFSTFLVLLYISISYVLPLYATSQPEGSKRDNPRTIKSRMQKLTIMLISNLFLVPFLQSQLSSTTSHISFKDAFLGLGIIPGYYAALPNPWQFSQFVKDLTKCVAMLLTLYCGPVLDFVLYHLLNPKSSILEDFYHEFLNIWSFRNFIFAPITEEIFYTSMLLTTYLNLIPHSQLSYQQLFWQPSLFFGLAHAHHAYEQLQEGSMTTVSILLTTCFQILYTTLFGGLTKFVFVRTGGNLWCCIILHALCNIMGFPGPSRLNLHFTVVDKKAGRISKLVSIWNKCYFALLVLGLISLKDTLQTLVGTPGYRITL

Beta-galactosidase = Beta-galactosidase (Escherichia coli, UniProt Q8VNN2); assay: beta-galactosidase enzyme inhibitors and activators, dose response, artefact control for CCR6 antagonist project, biochemical, E. coli enzyme, set 3 (AID 504712); type: functional
Sequence of Beta-galactosidase (Q8VNN2 whole entry): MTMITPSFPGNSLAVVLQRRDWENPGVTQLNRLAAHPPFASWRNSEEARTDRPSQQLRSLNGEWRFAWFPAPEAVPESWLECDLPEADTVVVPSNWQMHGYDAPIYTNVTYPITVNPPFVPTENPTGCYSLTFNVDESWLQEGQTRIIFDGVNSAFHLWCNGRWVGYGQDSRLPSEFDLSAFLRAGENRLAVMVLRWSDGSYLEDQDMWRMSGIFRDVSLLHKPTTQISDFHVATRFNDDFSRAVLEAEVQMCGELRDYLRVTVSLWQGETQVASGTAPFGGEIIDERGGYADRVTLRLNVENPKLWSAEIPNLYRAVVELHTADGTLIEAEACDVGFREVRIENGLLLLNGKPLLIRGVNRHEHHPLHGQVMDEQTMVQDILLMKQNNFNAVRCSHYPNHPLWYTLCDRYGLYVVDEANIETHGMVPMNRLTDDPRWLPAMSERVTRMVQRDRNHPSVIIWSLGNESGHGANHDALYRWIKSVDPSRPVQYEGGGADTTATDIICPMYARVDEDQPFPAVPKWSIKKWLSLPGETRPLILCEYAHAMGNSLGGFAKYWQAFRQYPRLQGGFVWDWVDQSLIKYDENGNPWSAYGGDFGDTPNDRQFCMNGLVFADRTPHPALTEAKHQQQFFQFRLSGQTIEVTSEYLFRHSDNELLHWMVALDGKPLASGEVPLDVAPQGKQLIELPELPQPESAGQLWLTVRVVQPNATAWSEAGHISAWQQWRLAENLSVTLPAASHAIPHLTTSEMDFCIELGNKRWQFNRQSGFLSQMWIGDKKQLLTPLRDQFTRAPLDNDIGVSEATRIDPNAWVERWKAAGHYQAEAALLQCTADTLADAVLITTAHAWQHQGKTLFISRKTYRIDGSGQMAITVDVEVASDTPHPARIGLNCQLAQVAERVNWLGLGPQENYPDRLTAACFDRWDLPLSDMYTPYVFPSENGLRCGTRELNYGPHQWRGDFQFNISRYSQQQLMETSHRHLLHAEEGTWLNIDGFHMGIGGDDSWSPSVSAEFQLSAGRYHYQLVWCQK

CAAX prenyl protease 1 = biological target: T5, CAAX prenyl protease 1 (Saccharomyces cerevisiae S288c, UniProt P47154); assay: Ste24 protease inhibitors, dose response, biochemical, S. cerevisiae, plate reader, cherry-pick (AID 488815)
T5 sequence (P47154 whole entry): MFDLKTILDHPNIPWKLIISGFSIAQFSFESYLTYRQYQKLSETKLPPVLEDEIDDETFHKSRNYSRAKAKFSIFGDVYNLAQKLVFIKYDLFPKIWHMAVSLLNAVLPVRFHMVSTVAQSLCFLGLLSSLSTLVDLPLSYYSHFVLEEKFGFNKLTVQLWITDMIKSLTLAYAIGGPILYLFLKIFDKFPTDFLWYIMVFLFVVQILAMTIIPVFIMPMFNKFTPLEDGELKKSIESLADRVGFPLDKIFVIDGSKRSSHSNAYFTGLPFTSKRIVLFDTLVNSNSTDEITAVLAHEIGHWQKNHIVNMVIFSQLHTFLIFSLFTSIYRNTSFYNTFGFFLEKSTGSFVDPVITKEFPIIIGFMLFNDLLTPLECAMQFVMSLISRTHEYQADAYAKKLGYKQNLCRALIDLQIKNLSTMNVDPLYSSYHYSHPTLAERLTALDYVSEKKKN

[12] = biological target: C-C chemokine receptor type 6 (Homo sapiens, UniProt P51684); assay: CCR6 receptor antagonists, dose response, cell-based, luminescent beta-arrestin readout (AID 504728); type: functional
Sequence of C-C chemokine receptor type 6 (P51684 whole entry): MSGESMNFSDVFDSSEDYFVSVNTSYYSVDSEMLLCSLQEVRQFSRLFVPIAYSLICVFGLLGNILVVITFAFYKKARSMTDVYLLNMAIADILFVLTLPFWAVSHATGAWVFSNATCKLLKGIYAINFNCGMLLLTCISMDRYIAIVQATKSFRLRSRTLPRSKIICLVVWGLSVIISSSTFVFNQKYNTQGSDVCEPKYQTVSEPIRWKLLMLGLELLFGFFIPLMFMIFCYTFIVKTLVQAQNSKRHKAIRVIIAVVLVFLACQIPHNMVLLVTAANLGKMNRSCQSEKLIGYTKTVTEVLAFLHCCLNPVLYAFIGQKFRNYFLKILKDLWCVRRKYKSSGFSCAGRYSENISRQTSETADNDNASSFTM

[13] = biological target: G-protein coupled receptor 55 (Homo sapiens, UniProt Q9Y2T6); assay: GPR55 agonists via beta-arrestin recruitment, primary screen, imaging, U2OS cells, beta-arrestin-GFP redistribution (AID 1961); type: functional
Sequence of G-protein coupled receptor 55 (Q9Y2T6 whole entry): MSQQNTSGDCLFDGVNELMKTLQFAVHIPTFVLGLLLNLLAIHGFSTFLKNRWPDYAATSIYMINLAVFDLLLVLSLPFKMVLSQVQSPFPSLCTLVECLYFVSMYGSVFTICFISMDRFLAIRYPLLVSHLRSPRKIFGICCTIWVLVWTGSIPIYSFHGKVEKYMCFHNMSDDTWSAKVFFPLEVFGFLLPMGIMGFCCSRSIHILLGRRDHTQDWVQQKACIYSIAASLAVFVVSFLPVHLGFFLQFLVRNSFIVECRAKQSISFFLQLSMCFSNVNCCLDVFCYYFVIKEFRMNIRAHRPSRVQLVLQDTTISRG

Phosphomannomutase 2 = Phosphomannomutase 2 (Homo sapiens, UniProt O15305); assay: Counter screen SAR assay for PMM2 inhibitors via a fluorescence intensity assay. [Related pubchem assays (depositor defined):AID1545, AID1574]
Sequence of Phosphomannomutase 2 (O15305 whole entry): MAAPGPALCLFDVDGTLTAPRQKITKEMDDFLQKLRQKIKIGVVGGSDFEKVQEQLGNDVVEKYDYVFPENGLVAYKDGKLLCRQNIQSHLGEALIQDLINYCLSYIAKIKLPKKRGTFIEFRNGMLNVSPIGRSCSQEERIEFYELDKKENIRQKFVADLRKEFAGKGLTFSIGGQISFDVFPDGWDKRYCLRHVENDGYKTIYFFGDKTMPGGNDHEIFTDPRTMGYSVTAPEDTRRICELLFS

[14] = biological target: T6, Mannose-6-phosphate isomerase (Homo sapiens, UniProt P34949); assay: PMI enzyme inhibitors, confirmation, biochemical, fluorescence intensity (AID 1535)
T6 sequence (P34949 whole entry): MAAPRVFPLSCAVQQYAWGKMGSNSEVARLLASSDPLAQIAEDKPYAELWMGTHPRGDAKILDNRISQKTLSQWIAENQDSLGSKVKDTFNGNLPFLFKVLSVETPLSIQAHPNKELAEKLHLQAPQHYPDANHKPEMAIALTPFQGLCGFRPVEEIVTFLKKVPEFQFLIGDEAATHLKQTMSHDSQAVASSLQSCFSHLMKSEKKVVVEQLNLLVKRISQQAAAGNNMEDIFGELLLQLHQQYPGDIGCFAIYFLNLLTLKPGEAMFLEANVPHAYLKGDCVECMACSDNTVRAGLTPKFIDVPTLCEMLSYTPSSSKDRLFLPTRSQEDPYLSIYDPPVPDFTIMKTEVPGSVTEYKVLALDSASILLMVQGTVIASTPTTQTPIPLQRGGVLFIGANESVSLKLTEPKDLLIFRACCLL

[15] = biological target: Phosphoethanolamine/phosphocholine phosphatase (Homo sapiens, UniProt Q8TCT1); assay: SAR assay for compounds that inhibit PHOSPHO1. [Related pubchem assays (depositor defined):AID1545, AID1565, AID1574]

Sequence of Glucose-6-phosphate 1-dehydrogenase (P11413 whole entry): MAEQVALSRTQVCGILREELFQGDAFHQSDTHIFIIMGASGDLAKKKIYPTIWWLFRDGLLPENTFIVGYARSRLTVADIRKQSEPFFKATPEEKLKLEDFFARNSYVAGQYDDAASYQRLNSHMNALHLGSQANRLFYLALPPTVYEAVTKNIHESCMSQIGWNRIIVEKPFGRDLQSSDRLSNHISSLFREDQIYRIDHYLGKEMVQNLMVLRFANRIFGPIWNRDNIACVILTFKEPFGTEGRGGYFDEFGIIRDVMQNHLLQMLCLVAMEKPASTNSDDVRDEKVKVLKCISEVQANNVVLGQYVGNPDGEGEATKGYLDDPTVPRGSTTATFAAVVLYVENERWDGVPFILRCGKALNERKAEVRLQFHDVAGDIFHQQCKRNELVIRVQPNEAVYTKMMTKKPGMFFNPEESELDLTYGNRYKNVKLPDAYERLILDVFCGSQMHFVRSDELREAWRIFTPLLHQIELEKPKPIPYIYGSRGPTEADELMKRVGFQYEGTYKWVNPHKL

Structure (SMILES): CC(NC(=O)c1sc2cc([N+](=O)[O-])ccc2c1Cl)C(C)(C)C (centres undefined)
- IC50 [1]: > 80 µM (inactive)
- IC50 [2]: 18.4 µM (active)
- EC50 (Hexokinase-1): 46.8 µM (inactive)
- IC50 [3]: > 100 µM (inactive)
- EC50 (Hexokinase HKDC1): 23.6 µM (inactive)

Structure (SMILES): COC(=O)c1c(NC(=O)Cc2cccs2)sc2c1CCC(C)C2 (centres undefined)
- AC50 [4]: 2.78 µM (active)
- IC50 [5]: 6.23 µM (active)
- IC50 [6]: > 16 µM (inactive)

- IC50 [7]: > 100 µM (not active)
- IC50 [8]: > 100 µM (inactive)
Structure (SMILES): CCCc1nc2oc3cc(OC)ccc3c(=O)c2c(=O)n1Cc1ccco1

- EC50 (Mu-type opioid receptor): > 92.5 µM (inactive)
- EC50 [9]: > 92.5 µM (inactive)
- EC50 [10]: > 92.5 µM (inactive)
Structure (SMILES): COC(=O)CCCNC(=O)c1ccc(OC2CCN(CCc3ccccc3)CC2)cc1

- IC50 [7]: > 100 µM (not active)
- IC50 [8]: > 100 µM (inactive)
Structure (SMILES): Cc1ccc(C(C)NC(=O)/C(C#N)=C\c2c(C)[nH]c3ccccc23)cc1 (centres undefined)
- CC50 [11]: 19.4 µM (active)

- AC50 (CAAX prenyl protease 2): 8.3 µM (active)
- IC50 (Beta-galactosidase): > 66.6 µM (inactive)
- AC50 (CAAX prenyl protease 1): 1.6 µM (active)
- IC50 [12]: > 66.6 µM (inactive)
Structure (SMILES): N#Cc1c(N2CCN(C(=O)c3ccccc3)CC2)nc(-c2ccccc2)c2c1CCCC2

- EC50 [13]: > 32 µM (inactive)
Structure (SMILES): COCCCN=C(S)NNC(=O)c1cccnc1

- IC50 (Phosphomannomutase 2): 1.26 µM (active)
- IC50 [14]: 12 µM (active)
- IC50 [15]: 0.192 µM (active)
Structure (SMILES): O=c1c2c([N+](=O)[O-])cc([N+](=O)[O-])cc2sn1-c1ccc(F)c(Cl)c1
